CN1CCN(C2=Nc3cc(Cl)ccc3Nc3ccccc32)CC1
solubility (mole fraction)
Conditions	278.15 K	283.15 K	288.15 K	293.15 K	298.15 K	303.15 K	308.15 K	313.15 K	318.15 K	323.15 K
in 2-butanone	0.0216	0.0242	0.0274	0.0303	0.0339	0.0374	0.0416	0.0458	0.0505	0.0558
in DMF	0.0953	0.1	0.106	0.112	0.117	0.123	0.129	0.135	0.141	0.148
in THF	0.0624	0.0668	0.0716	0.0765	0.0815	0.0866	0.0919	0.0978	0.103	0.109
in acetone	0.0116	0.0133	0.0151	0.0172	0.0197	0.0223	0.0251	0.0283	0.0323	0.0363
in acetonitrile	0.00213	0.00234	0.0026	0.00285	0.00316	0.00344	0.0038	0.00413	0.00452	0.0049
in chloroform	0.0625	0.0652	0.0681	0.0712	0.0741	0.0771	0.0801	0.0837	0.0871	0.0905
in ethanol	0.00533	0.0059	0.0066	0.00735	0.00811	0.0089	0.00988	0.0108	0.0119	0.0131
in ethyl acetate	0.0109	0.0121	0.0135	0.0152	0.0169	0.0191	0.0209	0.0232	0.0256	0.0283
in ethyl formate	0.032	0.0343	0.0367	0.0393	0.0419	0.0443	0.047	0.0499	0.0527	0.0564
in isobutanol	0.00666	0.00731	0.00809	0.00888	0.00987	0.0108	0.0119	0.013	0.0142	0.0155
in isopentanol	0.0083	0.00932	0.0103	0.0116	0.0128	0.0142	0.0156	0.0173	0.019	0.0212
in isopropanol	0.00278	0.00322	0.00367	0.00419	0.00487	0.00544	0.00615	0.00693	0.00781	0.00894
in methanol	0.00633	0.00702	0.00766	0.00839	0.00921	0.00999	0.0109	0.012	0.013	0.014
in methyl acetate	0.0124	0.0141	0.0158	0.0173	0.019	0.021	0.0229	0.0251	0.0277	0.0303
in n-butanol	0.00796	0.00891	0.01	0.0113	0.0126	0.0141	0.0154	0.0172	0.0189	0.0208
in n-pentanol	0.00905	0.0102	0.0115	0.0128	0.0143	0.0159	0.0174	0.0193	0.0213	0.0231
in n-propanol	0.00708	0.00814	0.00924	0.0105	0.0118	0.0134	0.0148	0.0164	0.0183	0.0204
in sec-butanol	0.0046	0.00509	0.00566	0.00617	0.0068	0.00744	0.00812	0.00893	0.00975	0.0107

Source: BigSolDB 2.1
